{
  "source": "ChEMBL document CHEMBL6092139",
  "about": "“AChE inhibitory activity of N-substituted natural galanthamine derivatives” (Bioorg Med Chem Lett, 2024)",
  "data": [
    {"molecular_target": "Acetylcholinesterase (Homo sapiens, UniProt P22303)", "sequence (P22303 whole entry)": "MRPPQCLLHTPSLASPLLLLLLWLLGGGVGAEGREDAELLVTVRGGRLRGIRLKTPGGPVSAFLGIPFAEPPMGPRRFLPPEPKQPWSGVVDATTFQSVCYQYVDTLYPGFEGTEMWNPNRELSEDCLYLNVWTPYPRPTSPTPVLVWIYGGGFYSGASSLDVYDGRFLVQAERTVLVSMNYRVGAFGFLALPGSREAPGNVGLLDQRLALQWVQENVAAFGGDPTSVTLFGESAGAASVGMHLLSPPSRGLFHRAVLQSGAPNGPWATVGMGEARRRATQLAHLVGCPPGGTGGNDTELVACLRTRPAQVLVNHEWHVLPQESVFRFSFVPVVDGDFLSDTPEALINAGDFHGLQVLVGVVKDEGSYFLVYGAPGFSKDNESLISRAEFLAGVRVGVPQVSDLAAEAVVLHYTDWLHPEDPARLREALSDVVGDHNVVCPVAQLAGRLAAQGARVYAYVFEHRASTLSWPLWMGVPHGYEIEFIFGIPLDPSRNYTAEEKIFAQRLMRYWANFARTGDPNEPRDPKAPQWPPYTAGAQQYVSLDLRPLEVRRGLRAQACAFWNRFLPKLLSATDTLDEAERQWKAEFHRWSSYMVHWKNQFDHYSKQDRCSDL", "assay": "Inhibition of AChE (unknown origin) using acetylthiocholine iodide as substrate preincubated for 30 mins followed by substrate addition and measured after 3 mins by DTNB reagent based Ellman's method", "units": {"IC50": "µM"}, "values": [
      {"smiles": "COc1ccc2c3c1O[C@H]1C[C@@H](O)C=C[C@@]31CCN(C(C)=O)C2", "IC50": 9.8},
      {"smiles": "C=CCN1CC[C@@]23C=C[C@H](O)C[C@@H]2Oc2c(OC)ccc(c23)C1", "note": "[N-ALLYLNORGALANTHAMINE]", "IC50": 0.18},
      {"smiles": "COc1ccc2c3c1O[C@H]1C[C@@H](O)C=C[C@@]31CCN(C=O)C2", "IC50": 98.8}
    ]}
  ]
}
